In PMC4236622 (Cancer Chemotherapy and Pharmacology, 2014):

Assays:
NCI-N87 gastric tumor = assay: Activity in NCI-N87 gastric tumor xenograft model; assay type: in vivo, mouse
Description: (§1) Tumor volume was estimated as described above.
(§2) Studies were terminated on Days 59 (HT29), 61 (NCI-H460), 72 (MCF-7), 60 (A2780, q7dx3), 76 (A2780 qdx1), and 84 (NCI-N87).
(§3) Kaplan–Meier plots were constructed to show the percentage of animals remaining in the study to perform the logrank test. Median tumor growth curves show group median tumor volumes as a function of time. When an animal exited the study due to tumor size, the final tumor volume recorded for the animal was included with the data used to calculate the group median tumor volume at subsequent time points.

HT29 colon tumor [1] = assay: Activity in HT29 colon tumor xenograft model; assay type: in vivo, mouse; settings: for Median TTE: endpoint 1,000 mm3; for Survivors not reaching tumor endpoint: endpoint 1,000 mm3 or Day 73; for Tumor regression, Complete / Tumor regression, Partial: HT29 colon tumor model, animals/group
Description: as §1, §2, §3

[2] = humans, cited from earlier work; for time post-dose at which concentrations fall below 0.1 ng/mL: following irinotecan infusion (350 mg/m2 every 21 days), reference not given
MCF-7 breast tumor = assay: Activity in MCF-7 breast tumor xenograft model; assay type: in vivo, mouse
Description: as §1, §2, §3

[3] = mice; no reference given; cited from earlier work
NCI-H460 lung tumor [4] = assay: Activity in NCI-H460 lung tumor xenograft model; assay type: in vivo, mouse; settings: for Median TTE: endpoint 1,500 mm3; for Survivors not reaching tumor endpoint: endpoint 1,500 mm3 or Day 57; for Tumor regression, Complete / Tumor regression, Partial: NCI-H460 lung tumor model, animals/group
Description: as §1, §2, §3

A2780 ovarian tumor = assay: Activity in A2780 ovarian tumor xenograft model; assay type: in vivo, mouse
Description: as §1, §2, §3

[5] = Plasma and tumor pharmacokinetics in tumor-bearing mice (HT29 and NCI-H460, model not distinguished); settings: after conventional irinotecan 40 mg/kg iv Days 0, 4, 8
Protocol: (§4) The length and width of each tumor was recorded 2–3 times a week, and the corresponding tumor volume was estimated using the formula L × W ^2/2 = mm^3, where L and W refer to the larger and smaller perpendicular tumor dimensions, respectively. Animals found moribund or with tumors ≥4,000 mm^3, ulcerated, or sloughed off were euthanized prior to scheduled termination. […] Plasma was harvested, frozen on dry ice, and stored at −80 °C until assayed. Immediately following blood collection, animals were euthanized, and the tumors were excised, frozen in liquid nitrogen, and stored at −80 °C until assayed.

[6] = Tolerability in mouse xenograft studies (body weight, mortality); assay type: in vivo; settings: all doses, all xenograft models
Description: as §1

NCI-H460 lung tumor [7] = assay: Tumor PK/PD study in NCI-H460 tumor-bearing mice (tumor volume, inhibitory Emax model); assay type: in vivo, mouse; settings: Emax fixed at 1
Protocol: as §4
(§5) Inhibitory E max response PK/PD models based on the Gompertz equation [32] were developed for both tumor types to represent the rate of tumor growth as a function of tumor SN38 concentration. A schematic diagram of the PK/PD model is shown in Online Resource 1. […] The PD parameter values k gr (tumor intrinsic growth rate; day^−1), Limit (limit of tumor growth), and EC 50 (half-maximal effective inhibitory concentrations; μg/g) were optimized using Runge–Kutta 4 integration and the multiple-fit curve fitting module of Berkeley Madonna.

[8] = design: method as in PMID 1651156; settings: cited from earlier work
[9] = Pharmacokinetics across nonclinical species (mouse, rat, dog); settings: rats and dogs, after conventional irinotecan
Protocol: Blood samples were collected via a peripheral vein into blood collection tubes containing 1/20th the plasma volume of a dimethyl sulfoxide solution containing 50 mM phenylmethyl sulfonyl fluoride and 1 % acetic acid (v/v). Plasma was harvested by centrifugation at 2,100×g for 20 min at 4 °C. Plasma was further stabilized by addition of 1 % acetic acid and stored at −80 °C until assayed.
Tumor tissue samples were homogenized in a 9× volume of homogenization buffer (containing sodium fluoride, phenylmethyl sulfonyl fluoride, and sodium dodecyl sulfate) prior to extraction of analytes. SN38 from tumor homogenate was extracted using protein precipitation with acetonitrile and quantified by LC–MS/MS using SN38 calibration standards. LC–MS/MS used a Synergy Hydro, 3 µm, 50 × 2.0-mm column, operated at 50 °C, at a flow rate of 0.4 mL/min with a gradient consisting of 0.1 % formic acid in water and 0.1 % formic acid in acetonitrile, coupled to an API 4000 (Applied Biosystems). […] The predicted mouse and measured rat and dog concentration–time profiles were analyzed with noncompartmental methods within WinNonlin (Professional version 5.2; Pharsight Corporation, Mountain View, CA) to estimate customary PK parameters.

HT29 colon tumor [10] = assay: Tumor PK/PD study in HT29 tumor-bearing mice (tumor volume, inhibitory Emax model); assay type: in vivo, mouse; settings: Emax fixed at 1
Protocol: as §4, §5

[11] = NCI-N87 gastric tumor model, 60 mg/kg Q7dx3 iv, animals/group
[12] = MCF-7 breast tumor model, 40 mg/kg Q4dx3 iv, animals/group
[13] = A2780 ovarian tumor model, 100 mg/kg Q7dx3 iv, animals/group

CCc1c2c(nc3ccc(OC(=O)N4CCC(N5CCCCC5)CC4)cc13)-c1cc3c(c(=O)n1C2)COC(=O)[C@]3(O)CC [Irinotecan]
TGD (NCI-N87 gastric tumor; NCI-N87, 60 mg/kg Q7dx3 iv): 12 days | Median TTE (NCI-N87 gastric tumor; NCI-N87, 60 mg/kg Q7dx3 iv, endpoint 800 mm3): 30 days | Survivors not reaching tumor endpoint (NCI-N87 gastric tumor; NCI-N87, 60 mg/kg Q7dx3 iv, endpoint 800 mm3 or Day 84): 0/10 | Tumor regression, Complete (NCI-N87 gastric tumor; [11]): 0/10 | Tumor regression, Partial (NCI-N87 gastric tumor; [11]): 0/10 | TGD (HT29 colon tumor [1]; HT29, 40 mg/kg Q4dx3 iv): 10 days | Median TTE (HT29 colon tumor [1]; HT29, 40 mg/kg Q4dx3 iv): 26 days | Survivors not reaching tumor endpoint (HT29 colon tumor [1]; HT29, 40 mg/kg Q4dx3 iv): 0/10 | TGD (HT29 colon tumor [1]; HT29, 90 mg/kg Q4dx3 iv): 11 days | Median TTE (HT29 colon tumor [1]; HT29, 90 mg/kg Q4dx3 iv): 27 days | Survivors not reaching tumor endpoint (HT29 colon tumor [1]; HT29, 90 mg/kg Q4dx3 iv): 0/10 | regression responses (animals) (HT29 colon tumor [1]; HT29, Q4dx3): no tumor regression | Tumor regression, Complete (HT29 colon tumor [1]; 40 mg/kg Q4dx3 iv): 0/10 | Tumor regression, Partial (HT29 colon tumor [1]; 40 mg/kg Q4dx3 iv): 0/10 | Tumor regression, Complete (HT29 colon tumor [1]; 90 mg/kg Q4dx3 iv): 0/10 | Tumor regression, Partial (HT29 colon tumor [1]; 90 mg/kg Q4dx3 iv): 0/10 | time post-dose at which concentrations fall below 0.1 ng/mL [2]: 5 to 7 days | TGD (MCF-7 breast tumor; MCF-7, 40 mg/kg Q4dx3 iv): 22 days | Median TTE (MCF-7 breast tumor; MCF-7, 40 mg/kg Q4dx3 iv, endpoint 700 mm3): 59 days | Survivors not reaching tumor endpoint (MCF-7 breast tumor; MCF-7, 40 mg/kg Q4dx3 iv, endpoint 700 mm3 or Day 73): 2/10 | regression responses / regression rate (animals) (MCF-7 breast tumor; MCF-7, Q4dx3): ≤ 30% | Tumor regression, Complete (MCF-7 breast tumor; [12]): 3/10 | Tumor regression, Partial (MCF-7 breast tumor; [12]): 0/10 | single-dose LD10 [3]: ~ 120 mg/kg | regression responses (animals) (NCI-H460 lung tumor [4]; H460, Q4dx3): no tumor regression | TGD (NCI-H460 lung tumor [4]; NCI-H460, 40 mg/kg Q4dx3 iv): 11 days | Median TTE (NCI-H460 lung tumor [4]; NCI-H460, 40 mg/kg Q4dx3 iv): 23 days | Survivors not reaching tumor endpoint (NCI-H460 lung tumor [4]; NCI-H460, 40 mg/kg Q4dx3 iv): 0/10 | TGD (NCI-H460 lung tumor [4]; NCI-H460, 90 mg/kg Q4dx3 iv): 12 days | Median TTE (NCI-H460 lung tumor [4]; NCI-H460, 90 mg/kg Q4dx3 iv): 24 days | Survivors not reaching tumor endpoint (NCI-H460 lung tumor [4]; NCI-H460, 90 mg/kg Q4dx3 iv): 0/10 | Tumor regression, Complete (NCI-H460 lung tumor [4]; 40 mg/kg Q4dx3 iv): 0/10 | Tumor regression, Partial (NCI-H460 lung tumor [4]; 40 mg/kg Q4dx3 iv): 0/10 | Tumor regression, Complete (NCI-H460 lung tumor [4]; 90 mg/kg Q4dx3 iv): 0/10 | Tumor regression, Partial (NCI-H460 lung tumor [4]; 90 mg/kg Q4dx3 iv): 0/10 | TGD (A2780 ovarian tumor; A2780, 100 mg/kg Q7dx3 iv): 15 days | Median TTE (A2780 ovarian tumor; A2780, 100 mg/kg Q7dx3 iv, endpoint 2,000 mm3): 29 days | Survivors not reaching tumor endpoint (A2780 ovarian tumor; A2780, 100 mg/kg Q7dx3 iv, endpoint 2,000 mm3 or Day 60): 0/10 | Tumor regression, Complete (A2780 ovarian tumor; [13]): 0/10 | Tumor regression, Partial (A2780 ovarian tumor; [13]): 0/10 | plasma irinotecan AUC [5]: 1.2 µg·days/mL | tumor irinotecan AUC [5]: 4.2 µg·days/g | maximum body weight loss [6]: ≤ 16% | treatment-related deaths [6]: no treatment-related deaths

CCc1c2c(nc3ccc(O)cc13)-c1cc3c(c(=O)n1C2)COC(=O)[C@]3(O)CC [SN38, 10-hydroxy-7-ethyl camptothecin]
EC50 (half-maximal effective inhibitory tumor SN38 concentration) (NCI-H460 lung tumor [7]): 1.2 µg/g | t1/2 of SN38 ([2]; conventional irinotecan): 24 to 47 h | time post-dose at which concentrations fall below 0.1 ng/mL [2]: 5 to 7 days | cytotoxicity in vitro, potency compared with irinotecan [8]: 100- to 1,000 fold | time post-dose at which plasma SN38 was undetectable [9]: 24 h | EC50 (half-maximal effective inhibitory tumor SN38 concentration) (HT29 colon tumor [10]): 0.20 µg/g
